Measurements from patent US5013554A, “Oral pharmaceutical compositions containing dextrophan salts” (Prodotti Formenti s.r.l., priority 1988, dated 1991).
Structures can show the parent of a compound that is named as a salt.

Tests used:
[1] = pharmacokinetic study on guinea pigs under urethane anaesthesia, oral administration of dextrorphan citrate and tartrate; plasma dextrorphan by HPLC after β-glucuronidase hydrolysis; assay type: in vivo
Protocol: The results from a pharmacokinetic study effected on guinea pigs under urethane anesthaesia, to which dextrorphan citrate and tartrate had been administered by the oral route, are reported hereinbelow in order to show the good bioavailability of dextrorphan salts.
Dextrorphan dosages were measured by a high pressure liquid chromatography method.
The plasma samples were subjected, before the extraction, to enzymatic hydrolysis with β-glucuronidase, according to the method reported by T.EAST and D.DYE (Journal of Chromatography Biomedical Applications 388, 99-112, 1985).
After hydrolysis, plasma samples were alkalinized with sodium carbonate and extracted with benzene; benzene was re-extracted with 0.5 ml of 0.1 NHCl and 100 mcl were chromatographed under the following conditions:
COLUMN: Lichrosorb RP Select B Merck 5 λ, 25 cm ×4 mm inn. d.
MOBILE PHASE: Octanesulphonic acid sodium salt 0.01M solution in water. Acetonitrile mixture (68-32% ). The solution was then buffered to pH 3 with phosphoric acid.
DETECTOR: F 1000 MERCK HITACHI Fluorimeter exc.=280 nm; em.=310 nm

[2] = test system: opiaceous receptors; details: background; cited from earlier work
[3] = previously reported; cited from earlier work
[4] = background; cited from earlier work
[5] = background; compared with dextromethorphan; cited from earlier work
[6] = background; cited from earlier work; remark: listed apart in the source

SMILES | oral absorption ([1]; in words) | affinity to the opiaceous receptors [2] | use by the oral route [3] | antitussive action [4] | concentration at 0.25 h ([1]; guinea pig, plasma, po, Table 2 (dextrorphan tartrate by order of b16), 15 minutes, read-out: Dextrorphan hematic levels) [ng/mL] | concentration at 0.5 h ([1]; guinea pig, plasma, po, Table 2 (dextrorphan tartrate by order of b16), 30 minutes, read-out: Dextrorphan hematic levels) [ng/mL] | concentration at 1 h ([1]; guinea pig, plasma, po, Table 2 (dextrorphan tartrate by order of b16), 60 minutes, read-out: Dextrorphan hematic levels) [ng/mL] | concentration at 2 h ([1]; guinea pig, plasma, po, Table 2 (dextrorphan tartrate by order of b16), 120 minutes, read-out: Dextrorphan hematic levels) [ng/mL] | concentration at 3 h ([1]; guinea pig, plasma, po, Table 2 (dextrorphan tartrate by order of b16), 180 minutes, read-out: Dextrorphan hematic levels) [ng/mL] | concentration at 5 h ([1]; guinea pig, plasma, po, Table 2 (dextrorphan tartrate by order of b16), 300 minutes, read-out: Dextrorphan hematic levels) [ng/mL] | toxicity [5] | analgesic activity [6]
CN1CC[C@@]23CCCC[C@@H]2[C@@H]1Cc1ccc(O)cc13 [Dextrorphan citrate] | effectively absorbed |  |  |  |  |  |  |  |  |  |  | 
CN1CC[C@@]23CCCC[C@@H]2[C@@H]1Cc1ccc(O)cc13 [Dextrorphan] |  | lack of analgesic activity and of affinity to the opiaceous receptors | not to be conveniently used by the oral route | remarkable antitussive action | 10 | 470 | 2500 | 3800 | 3000 | 3800 | very low toxicity, even lower than that of dextromethorphan | lack of analgesic activity
